# According to patent US20250127937A1, “FAP INHIBITOR” (UNIVERSITÄT HEIDELBERG, priority 2018, published 2025):
# Read-outs that look alike come from different tables or passages of the source.
# Key:
# human FAP-α = human FAP-α (Homo sapiens (Human), UniProt Q12884); experiment: Competitive binding of radiolabeled compound to HT-1080-FAP cells against unlabeled compound
# Procedure: Competition experiments were performed by simultaneous exposure to unlabeled (10^−5 M to 10^−9M) and radiolabeled compound for 60 min. […] For internalization experiments, surface bound activity was removed by incubating the cells with 1 M glycine-HCl buffer for 10 min. The radioactivity was measured using a γ-counter, normalized to 1 mio cells and calculated as percentage of applied dose (% ID).
# The medium was replaced by 1 mL fresh medium without fetal calf serum. […] Competition experiments were performed by simultaneous exposure to unlabeled (10^−5 M to 10^−9 M) and radiolabeled compound for 60 min. […] In all experiments, the cells were washed with 1 mL phosphate-buffered saline pH 7.4 for 2 times and subsequently lysed with 1.4 ml lysis buffer (0.3 M NaOH, 0.2% SDS). Radioactivity was determined in a γ-counter (Cobra II, Packard), normalized to 1 mio cells and calculated as percentage of the applied dose (% ID). Each experiment was performed 3 times, and 3 repetitions per independent experiment were acquired.
# HT-1080-FAP cells [1] = experiment: Efflux experiments in HT-1080-FAP cells; assay type: cell-based, human; details: after 24 h in compound-free medium
# Procedure: (§1) Radioligand binding studies were performed using HT-1080-FAP cells. The radiolabeled compound was added to the cell culture and incubated for different time intervals ranging from 10 min to 24 h. Competition experiments were performed by simultaneous exposure to unlabeled (10^−5 M to 10^−9M) and radiolabeled compound for 60 min. For efflux experiments, radioactive medium was removed after incubation for 60 min and replaced by non-radioactive medium for time intervals ranging from 1 to 24 h. For internalization experiments, surface bound activity was removed by incubating the cells with 1 M glycine-HCl buffer for 10 min. The radioactivity was measured using a γ-counter, normalized to 1 mio cells and calculated as percentage of applied dose (% ID).
# (§2) For radioligand binding studies, cells were seeded in 6-well plates and cultivated for 48 h to a final confluence of approx. 80-90% (1.2-2 mio cells/well). The medium was replaced by 1 mL fresh medium without fetal calf serum. The radiolabeled compound was added to the cell culture and incubated for different time intervals ranging from 10 min to 24 h. Competition experiments were performed by simultaneous exposure to unlabeled (10^−5 M to 10^−9 M) and radiolabeled compound for 60 min. For efflux experiments, radioactive medium was removed after incubation for 60 min and replaced by non-radioactive medium for time intervals ranging from 1 to 24 h. In all experiments, the cells were washed with 1 mL phosphate-buffered saline pH 7.4 for 2 times and subsequently lysed with 1.4 ml lysis buffer (0.3 M NaOH, 0.2% SDS). Radioactivity was determined in a γ-counter (Cobra II, Packard), normalized to 1 mio cells and calculated as percentage of the applied dose (% ID). Each experiment was performed 3 times, and 3 repetitions per independent experiment were acquired.
# [2] = test system: FAP-negative cancer cell lines; experiment: Radioligand binding to FAP-negative human cancer cell lines; assay type: cell-based; details: I-125 labeled, 60 min
# Procedure: (§3) In vitro binding studies were performed using the human tumor cell lines BxPC3, Capan-2, MCF-7 (purchased from Sigma Aldrich Chemie GmbH) and SK-LMS-1 (purchased from ATCC) as well as stably transfected FAP-cell lines HT-1080-FAP, HEK-muFAP and the CD26 expressing cell line HEK-CD26 (obtained from Stefan Bauer, NCT Heidelberg). All cells were cultivated in Dulbecco's modified Eagle's medium (DMEM) containing 10% fetal calf serum at 37° C./5% carbon dioxide. For fluorescence internalization experiments, cells were seeded on coverslips and stained with FAPI-02-Atto488 and DAPI for cell nucleus staining. Images were acquired on a laser scanning confocal microscope using a 63× oil immersion objective.
# (§4) For radioligand binding studies, cells were seeded in 6-well plates and cultivated for 48 h to a final confluence of approx. 80-90% (1.2-2 mio cells/well). The medium was replaced by 1 mL fresh medium without fetal calf serum. The radiolabeled compound was added to the cell culture and incubated for different time intervals ranging from 10 min to 24 h. Competition experiments were performed by simultaneous exposure to unlabeled (10^−5 M to 10^−9 M) and radiolabeled compound for 60 min. […] Radioactivity was determined in a γ-counter (Cobra II, Packard), normalized to 1 mio cells and calculated as percentage of the applied dose (% ID). […]
# HT-1080-FAP cells [3] = experiment: Radioligand binding and internalization in HT-1080-FAP cells; assay type: cell-based, human
# Procedure: as §1, §2
# For internalization experiments the cells were incubated with the radiolabeled compound for 60 min at 37° C. and 4° C. Cellular uptake was terminated by removing medium from the cells and washing 2 times with 1 mL PBS. Subsequently, cells were incubated with 1 mL of glycine-HCl (1 Min PBS, pH 2.2) for 10 min at room temperature to remove the surface bound activity. The cells were washed with 2 mL of ice-cold PBS and lysed with 1.4 mL of lysis buffer to determine the internalized fraction. For the cells incubated at 4° C., all washing and elution steps were carried out using ice-cold buffers. The radioactivity was measured using a γ-counter, normalized to 1 mio cells and calculated as percentage of applied dose (% ID).
# human CD26 = human CD26 (Homo sapiens (Human), UniProt P27487); experiment: Radioligand binding to CD26 expressing cells (HEK-CD26); details: 60 min incubation
# human CD26, sequence (P27487 whole entry): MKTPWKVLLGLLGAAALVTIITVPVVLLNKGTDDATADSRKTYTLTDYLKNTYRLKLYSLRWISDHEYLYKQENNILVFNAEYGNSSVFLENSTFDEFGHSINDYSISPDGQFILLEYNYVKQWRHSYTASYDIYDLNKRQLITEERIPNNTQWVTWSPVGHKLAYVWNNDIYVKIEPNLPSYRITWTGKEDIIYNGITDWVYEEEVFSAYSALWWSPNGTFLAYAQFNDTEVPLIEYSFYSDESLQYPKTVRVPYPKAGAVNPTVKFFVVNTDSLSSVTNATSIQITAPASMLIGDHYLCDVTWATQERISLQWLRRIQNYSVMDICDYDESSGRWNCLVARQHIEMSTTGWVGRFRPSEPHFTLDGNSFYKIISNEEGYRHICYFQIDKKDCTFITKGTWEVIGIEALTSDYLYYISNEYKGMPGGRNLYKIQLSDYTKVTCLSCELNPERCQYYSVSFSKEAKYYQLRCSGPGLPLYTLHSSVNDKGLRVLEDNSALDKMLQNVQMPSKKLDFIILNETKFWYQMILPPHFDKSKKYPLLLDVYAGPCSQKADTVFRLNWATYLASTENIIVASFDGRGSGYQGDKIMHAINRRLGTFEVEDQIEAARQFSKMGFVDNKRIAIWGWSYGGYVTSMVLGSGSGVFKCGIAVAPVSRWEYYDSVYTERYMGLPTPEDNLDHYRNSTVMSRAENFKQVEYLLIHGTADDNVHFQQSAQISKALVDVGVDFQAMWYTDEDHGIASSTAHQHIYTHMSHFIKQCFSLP
# Procedure: as §3, §4
# [4] = test system: HT-1080-FAP tumor xenografts; experiment: Organ distribution ex vivo in HT-1080-FAP tumor bearing nude mice; set-up: species or system mouse; details: AlF-18-labeled, i.v.
# [5] = test system: HT-1080-FAP tumor xenografts; experiment: Small-animal imaging (PET, scintigraphy) in HT-1080-FAP tumor bearing mice; assay type: in vivo, mouse; details: F-18 labeled (nicotinamide or AlF-18 NOTA), up to 140 min after i.v.
# Procedure: For in vivo experiments, 8 week old BALB/c nu/nu mice (Charles River) were subcutaneously inoculated into the right trunk with 5×10^6 with HT-1080-FAP, Capan-2 or SK-LMS-1 cells, respectively. When the size of the tumor reached approximately 1 cm^3, the radiolabeled compound was injected via the tail vein (˜10 MBq for small-animal PET imaging; ˜1 MBq for organ distribution). […] Images were reconstructed iteratively using the 3D-OSEM+MAP method and were converted to standardized uptake value (SUV) images. Quantification was done using a ROI technique and expressed as SUV mean. For organ distribution of Lu-177 labeled compound ([…]), the animals (n=3 for each time point) were sacrificed after indicated time points (from 30 min to 24 h). The distributed radioactivity was measured in all dissected organs and in blood using a γ-counter (Cobra Autogamma, Packard). The values are expressed as percentage of injected dose per gram of tissue (% ID/g).
# HEK-CD26 cells = experiment: Fluorescence laser scanning microscopy of internalization, FAP-α negative cells; assay type: cell-based; details: fluorescently labeled, 1 to 2 hrs
# Procedure: as §3
# (§5) For internalization experiments HT-1080-FAP and HEK muFAP cells were seeded on uncoated coverslips in a 24-well plate and cultivated in culture medium containing 10% fetal calf serum to a final confluence of approx. 80-90%. The medium was removed and cells were washed with 0.5 mL PBS pH 7.4 for 2 times. FAPI-02-Atto488 (20 μM in DMEM) was added to the cells and incubated for 2 hrs at 37° C. Cells were washed with 0.5 mL PBS pH 7.4 for 3 times and fixed with paraformaldehyde (2% in PBS) for 15 min. The overgrown coverslips were placed on microscope slides using mounting medium containing DAPI for cell nucleus staining (Fluoroshield, Sigma-Aldrich). […]
# [6] = test system: HT-1080-FAP and HEK-muFAP cells; experiment: Fluorescence laser scanning microscopy of internalization, FAP-α expressing cells; assay type: cell-based; details: fluorescently labeled, 1 to 2 hrs
# Procedure: as §3, §5
# [7] = I-125 labeled, 10 min incubation
# human FAP-α, sequence (Q12884 whole entry): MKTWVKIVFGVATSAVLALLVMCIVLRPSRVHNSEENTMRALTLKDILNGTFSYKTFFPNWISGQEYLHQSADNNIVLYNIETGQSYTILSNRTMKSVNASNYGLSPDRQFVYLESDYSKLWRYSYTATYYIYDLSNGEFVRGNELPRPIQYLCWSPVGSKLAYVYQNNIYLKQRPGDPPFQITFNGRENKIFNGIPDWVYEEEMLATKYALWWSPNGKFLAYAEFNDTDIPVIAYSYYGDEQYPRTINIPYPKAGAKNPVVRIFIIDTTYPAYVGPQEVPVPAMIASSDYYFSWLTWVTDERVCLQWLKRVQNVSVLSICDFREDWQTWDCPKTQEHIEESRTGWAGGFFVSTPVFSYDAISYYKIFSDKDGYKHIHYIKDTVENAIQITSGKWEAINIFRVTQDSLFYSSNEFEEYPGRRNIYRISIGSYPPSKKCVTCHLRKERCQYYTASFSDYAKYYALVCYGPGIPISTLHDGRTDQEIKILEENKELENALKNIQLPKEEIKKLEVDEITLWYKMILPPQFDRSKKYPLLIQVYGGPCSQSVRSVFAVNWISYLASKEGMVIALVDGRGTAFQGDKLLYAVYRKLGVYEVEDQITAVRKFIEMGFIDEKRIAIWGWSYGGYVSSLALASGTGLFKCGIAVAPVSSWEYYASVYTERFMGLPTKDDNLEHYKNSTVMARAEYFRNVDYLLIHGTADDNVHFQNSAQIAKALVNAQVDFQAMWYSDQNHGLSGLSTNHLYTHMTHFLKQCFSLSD
smiles,measurement,setting,value
N#C[C@@H]1CCCN1C(=O)CNC(=O)c1ccnc2cccc(I)c12 [FAPI-01],IC50,"human FAP-α; radiolabeled FAPI-01 (I-125) / FAPI-02 (Lu-177), HT-1080-FAP cells, 60 min, read-out: IC50 human FAP-α",39.4 nM
same,retained radioactivity (efflux),HT-1080-FAP cells [1],1.1 % ID
same,retention of the originally accumulated radioactivity (efflux),HT-1080-FAP cells [1],1.1%
same,binding to FAP-negative cancer cell lines,[2],no significant binding
same,activity remaining after 24 h of incubation relative to initial radioactivity,"HT-1080-FAP cells [3]; 24 h incubation, FAPI-01 compared to binding after 10 min",5%
same,proportion of total bound fraction located intracellularly,HT-1080-FAP cells [3]; [7],95%
same,total bound fraction,HT-1080-FAP cells [3]; [7],19.70±0.28%
same,internalized proportion of total,"HT-1080-FAP cells [3]; I-125 labeled, 4 h incubation",94%
same,total bound fraction,"HT-1080-FAP cells [3]; I-125 labeled, 4 h incubation",17.00±0.40%
same,radioactivity,"HT-1080-FAP cells [3]; I-125 labeled, after 24 h, 4° C. (reduced deiodinase activity)",26.66±1.59%
same,intracellular radioactivity,"HT-1080-FAP cells [3]; I-125 labeled, after 24 h, 37° C.",3.25±0.29%
same,binding to CD26 expressing cells (% ID),human CD26,0.05±0.01%
N#C[C@@H]1CC(F)(F)CN1C(=O)CNC(=O)c1ccnc2ccc(OCCCN3CCN(C(=O)[C@H](CC(C(=O)O)C(=O)O)NC(=O)CN4CCN(CC(=O)O)CCN(CC(=O)O)CC4)CC3)cc12 [FAPI-75],IC50,"human FAP-α; F-18-FAPI derivatives, table title says EC50, head says IC50, read-out: IC50",2.9 nM
same,tumor uptake in organ distribution,[4],high tumor uptake
same,PET imaging findings,[5],high target specificity and fast clearance
CN(CCCC(=O)N1CCN(CCCOc2ccc3nccc(C(=O)CCCN4CCC[C@H]4C#N)c3c2)CC1)Cc1ccccc1-c1c2ccc(=N)cc-2oc2c(S(=O)(=O)O)c(N)ccc12 [FAPI-02-Atto488],uptake in FAP-α negative HEK-CD26 cells,HEK-CD26 cells,no uptake is detectable
same,internalization into FAP-α expressing cells,[6],completely internalized
